Laboratory results: patent publication US20260137697A1, “THIAZOLO[5,4-D]PYRIMIDINE COMPOUNDS, COMPOSITIONS COMPRISING THEM AND USES THEREOF” (University de Montreal, priority 2022, published 2026)
Where two headings read alike, the source gives them in different places.

Experiments:
Format in all cases: cell-based, human
pERK, Lovo cells = test: Phospho-ERK inhibition, AlphaLISA p-ERK 1/2, Lovo; conditions: Table D-2; for IC50: Lovo (KRAS-G13D); for pERK value in parentheses, % inhibition (Ymin): Lovo, lowest point of IC50 curve
Protocol: (§1) All cancer cell lines (A375, A101D, A2058, RKO, HT29 SK-MEL 30, IPC298, HepG2, HCT-116, Lovo, SW620, SW480, NCI-H358, NCI-H2122, Calu-6, NCIH2087, NCIH1755, NCIH1666 and Mewo) were obtained from ATCC and cultured in RPM1-1640 medium (Gibco) supplemented with 5% heat inactivated fetal bovine serum (FBS, Wisent) at 37° C. under 5% CO2. Cells were maintained in T175 flasks (Greiner). They were passaged by removing the culture medium, washing once in 10 mL of room temperature Phosphate Buffered Saline (PBS; Wisent) and incubating at 37° C. with 2 mL of 0.05% Trypsin (Thermo-Fisher). Trypsin was then inactivated by adding complete growth medium and the cells were then replated in a T175 culture dish at the appropriate dilution. All cell lines were routinely tested for mycoplasma contamination. Tissue type and mutational status of each cell line can be found in Table B.
(§2) (c) Measurement of Phospho-ERK Inhibition in Cultivated Human Cancer Cell Lines by the AlphaLISA® SureFire® Ultra™ p-ERK 1/2 (Thr2O2/Tyr204)
(§3) AlphaLISA® SureFire® Ultra™ p-ERK 1/2 (Thr202/Tyr204) analysis was conducted on cells plated in 100 μL of complete RPMI-1640 growth medium in 96-well flat-bottomed transparent dishes (Costar) at a density indicated in Table C. Cells were maintained overnight at 37° C. under 5% CO2 before treatment with compounds' dilution series for one hour. The cell density in cells/cm^2 corresponds to cell number divided by the area of one well of a 96-well plate (0.143 cm^2).
(§4) In a dilution series 100 μL/well of test substance dilution prepared in complete RPMI-1640 growth media was added to the cells. The dilution series is selected so that ten concentrations cover a range from 10 μM to 0.33 nM. If necessary, the initial concentration of 10 μM is increased to 100 μM or lowered to 1 μM (as in the case of A375 and H1666 cells, which are generally more sensitive to the compounds) and further dilution is carried out accordingly. The final concentration of DMSO in the assay is set at 0.5%.
(§5) After treatment, media was removed, and cells were lysed in 50 μL of 1× AlphaScreen Ultra Lysis Buffer (Perkin Elmer). The AlphaLISA® SureFire® Ultra™ p-ERK 1/2 (Thr202/Tyr204) (PerkinElmer) reactions were performed with 5 μL of cell lysate according to the manufacturer's specifications in 384-well proxyplates (Perkin Elmer) followed by overnight incubation of the reactions at room temperature in a humidified chamber. After completion of the reactions, the signals were recorded on an EnVision plate reader (Perkin Elmer) using built in AlphaLISA® settings.
(§6) The effect of each compound dilution on the pERK signal was expressed in % inhibition and calculated as follows. An internal 100% inhibition control (1 μM trametinib, cat. No. HY-10999; MedChem Express; CAS No. 871700-17-3) was included in each plate and used as a measure of pERK background. First, the value obtained for trametinib was subtracted from each data point. The average of DMSO (vehicle) controls (set as 0% inhibition) was established and used to calculate % inhibition:
(§7) The ability of each compound to inhibit pERK signal was expressed as an IC50 value obtained by plotting the inhibition values for each data point of a dilution series and fitting the obtained curves using a log(agonist) versus response—variable slope (four parameters) function using GraphPadPrism (V7.0) or Dotmatics Screening Ultra platform.
(§8) When present, paradoxical pERK induction is inferred from the negative % inhibition values observed in the pERK IC50 curves of a compound.

pERK, NCI-H358 cells = test: Phospho-ERK inhibition, AlphaLISA p-ERK 1/2, NCI-H358; conditions: Table D-2; for IC50: NCI-H358 (KRAS-G12C); for pERK value in parentheses, % inhibition (Ymin): NCI-H358, lowest point of IC50 curve
Protocol: as §1, §2, §3, §4, §5, §6, §7, §8

pERK, NCI-H2122 cells = test: Phospho-ERK inhibition, AlphaLISA p-ERK 1/2, NCI-H2122; conditions: Table D-2; for IC50: NCI-H2122 (KRAS-G12C); for pERK value in parentheses, % inhibition (Ymin): NCI-H2122, lowest point of IC50 curve
Protocol: as §1, §2, §3, §4, §5, §6, §7, §8

pERK, NCIH2087 cells = test: Phospho-ERK inhibition, AlphaLISA p-ERK 1/2, NCIH2087; conditions: Table D-2; for IC50: NCIH2087 (BRAF L597V; KRAS Q61K); for pERK value in parentheses, % inhibition (Ymin): NCIH2087, lowest point of IC50 curve
Protocol: as §1, §2, §3, §4, §5, §6, §7, §8

IPC298 cells = test: Proliferation inhibition, CellTiter-Glo, IPC298; conditions: Table D-1, IPC298 (NRAS-Q61L), 3 days, read-out: Prolif. (proliferation EC50)
Protocol: as §1
CellTiter-Glo® viability analysis was conducted on cells plated in 100 μL of complete RPMI-1640 growth medium in 96-well flat-bottomed white opaque plates (Greiner or Croning) at a density indicated in Table E (for each CCL, number of cells plated per well of a 96-well plate to perform the CellTiter-Glo® cell viability assay). The cell density in cells/cm^2 would correspond to cell number divided by the area of one well of a 96-well plate (0.32 cm^2). […]
After 3 days of incubation, the growth media were removed by aspiration and 60 μL of diluted CellTiter-Glo® reagent (10 μL CellTiter-Glo® reagent+50 μL of PBS) was added to each well. […] Luminescence signals were then acquired on a Synergy Neo2 plate reader (Biotek).
The effect of each compound dilution on the proliferation of cancer cell lines was expressed in % inhibition and calculated as follows. […]
as §7, with “proliferation” for “pERK signal”, “a EC50” for “an IC50”, “effect” for “inhibition”

IC50 (pERK, Lovo cells) [nM] | IC50 (pERK, NCI-H358 cells) [nM] | IC50 (pERK, NCI-H2122 cells) [nM] | IC50 (pERK, NCIH2087 cells) [nM] | IC50 (pERK, Lovo cells; Homo sapiens) [nM] | IC50 (pERK, NCI-H358 cells; Homo sapiens) [nM] | IC50 (pERK, NCI-H2122 cells; Homo sapiens) [nM] | IC50 (pERK, NCIH2087 cells; Homo sapiens, NCI-H2087) [nM] | SMILES | pERK value in parentheses, % inhibition (Ymin) (pERK, Lovo cells) | pERK value in parentheses, % inhibition (Ymin) (pERK, NCI-H358 cells) | pERK value in parentheses, % inhibition (Ymin) (pERK, NCI-H2122 cells) | pERK value in parentheses, % inhibition (Ymin) (pERK, NCIH2087 cells) [%] | EC50 (IPC298 cells) [nM] | EC50 (IPC298 cells; Homo sapiens, IPC-298, 72 h) [nM]
30 to 300 | 30 to 300 | 30 to 300 | < 30 | – | – | – | – | Cc1c(F)cccc1S(=O)(=O)Nc1ccc(F)c(Nc2ncnc3sc(-n4cc(C(=O)N5C6CCC5CN(C)C6)c5ccccc54)nc23)c1F [Example 44] | (−10) % | (1) % | (−11) % | 4 | < 300 | –
30 to 300 | 30 to 300 | 30 to 300 | < 30 | – | – | – | – | N#CC1(c2cccc3c2ncn3-c2nc3c(Nc4c(F)ccc(NS(=O)(=O)c5cccc(Cl)c5Cl)c4F)ncnc3s2)CC1 [Example 122] | (13) % | (−3) % | (27) % | 4 | < 300 | –
– | – | – | – | < 30 | 30 to 300 | 30 to 300 | < 30 | Cc1ccc2c(Nc3cccc(Cl)c3F)nccc2c1NC(=O)c1csc2c(N)ncnc12 [Belvarafenib, reference compound] | (−12) % | (−122) % | (−9) % | 6 | – | < 300
